Patent US6211439A, “Herbicide resistance in plants” (MGI Pharma, Inc, priority 1995, dated 2001)
In brackets after ≈: the same amount, converted by molar mass.

What was measured:
[1] = test system: Unselected culture tissue; assay: Herbicide inhibition of plant regeneration, unselected culture tissue; assay type: cell-based, maize
Protocol: (§1) Eighty to 90 mg quantities of maize callus tissue were transferred to embryo and shoot development (regeneration) media in petri plates. The media consisted of MS basal media supplemented with 0.1 mg per liter 2,4-D and 1×10^-7 M abscissic acid. 0.25% Gelrite (Kelco Co., San Diego, Calif.) was used as a solid support in place of agar. The tissue was incubated in the dark at 26° C. (approximately 300 footcandles,soft white fluorescent) on a cycle of 14 hours light, 10 hours dark. Developing plants reaching a size of 1-3 cm were then transferred to flasks or jars, containing MS media with no supplementation, for further development. When plants reached the two to three leaf stage, they were moved to pots containing vermiculite and exposed to light at 2600 footcandles. These plants were watered with 20% v/v MS media for one week and then with water until they grew stably. The plants were then transferred to soil for growth to maturity.
The effect of various concentrations of 214 on plant regeneration embryo and shoot development were evaluated. Unselected culture tissue was transferred to regeneration media containing various concentrations of 214 ranging from 0.01 to 0.3 mg per liter. The tissue was then put through the first three weeks of the plant regeneration protocol described supra. The culture was scored after this time for the production of well defined shoots.

cell line XA119 = assay: Tolerance of cell line XA119 at the cellular level; assay type: cell-based, maize
XA17 seedlings = assay: Seedling assay, progeny of XA17 regenerated plant x B73 (heterozygous); assay type: in vivo, maize
Excerpt: An XA17 regenerated plant with a normal ear was pollinated with pollen obtained from a herbicide sensitive inbred B73 plant grown from seed. Seeds were obtained and harvested approximately forty days post pollination.
Twenty control seeds and ten XA17 seeds were surface sterilized with 2.6% sodium hypochlorite for twenty minutes and then washed with sterile distilled water. The seed was imbibed overnight in sterile water containing a small quantity of the fungicide, captan (N-trichloromethylthio-4-cyclohexene-1,2-dicarboximide). The mature embryos were then excised from the seed and plated scutellum side down on solid MS media without 2,4-D. Ten control seeds were plated on media containing no 214 and ten were plated in the presence of 6×10^-8M 214 which had been incorporated into the medium after autoclaving but before gelling. All ten XA17 seeds were plated in the presence of 6×10^-8 M 214. Seedlings were evaluated seven days after plating.

line XA17 tissue = assay: Plant regeneration from line XA17 callus in presence of herbicide; assay type: cell-based, maize; conditions: 0.1, 0.3, and 3.0 mg per liter 214
Protocol: as §1
Traits which are selected for and expressed in undifferentiated cell cultures are not necessarily expressed in the differentiated organs and tissues of a developing plant. Therefore, it was necessary to examine plants regenerated from line XA17 callus tissue in the presence of normally inhibitory concentrations of 214. Line XA17 tissue was transferred to regeneration media containing 0.1, 0.3, and 3.0 mg per liter 214.

Suspension culture cells = assay: Protein synthesis: incorporation of radiolabeled amino acids into TCA-precipitable cell components; assay type: cell-based, maize; conditions: Zea mays; 1×10^-5 M 997; cells at different post-subculture intervals; cell fresh weight basis
Protocol: Suspension culture cells were preincubated for 48 hours in the presence or absence of 1×10^-5 M 997 and then exposed for 12 hours to 75 !Ci of either ^35 S-methionine (1210 Ci/mmol, New England Nuclear, Boston, Mass.) or ^3 H-DL-leucine (55 Ci/mmol, ICN Pharmaceuticals Inc. -K and K Laboratories, Plainview, N.Y.) per 0.1 ml of cells at a cell density of 10% volume cells/volume suspension. Cells were then centrifuged 300×g, washed with cold MS culture media, and ground with a cold mortar and pestle in the presence of one volume of 6 M urea. The resulting extract was centrifuged at 12,800×g for 5 minutes. The pellet was then reextracted and, following centrifugation, the extracts were combined. Protein was precipitated by the addition of 10% w/v trichloroacetic acid (TCA). Protein was removed by centrifugation and resolubilized in 6 M urea. Incorporation of radiolabel into protein was determined by scintillation counting.

Corn Suspension Cultures = assay: Free amino acid levels in suspension cultures of the embryogenic cell line used for selection; assay type: cell-based, maize; conditions: 1 × 10^-5 M 997
Protocol: Suspension culture cells were treated for 3.5 hours or 48 hours with 1×10^-5 M 997. Cells were removed from suspension by filtration and 1 gram fresh weight quantities were ground with sand with a mortar and pestle in 1 ml 5% TCA. Four ml of 5% TCA were added and the extract centrifuged at 10,000×g for 10 minutes. The pellet was reextracted and the supernatants combined and subjected to cation exchange chromatography. The samples were applied to Bond Elut SCX columns (Analytichem International Inc., Harbor City, Calif.) which had been equilibrated with 5% TCA. Following sample application, the columns were washed with 5 ml distilled, deionized water, and the amino acids were eluted with 2 ml aliquots of 5% v/v triethylamine. The aliquots were combined (6 ml), lyophilized, and subjected to amino acid analysis with a Kontron Liquemat III amino acid analyzer (Hesber, Middlesex TW5 OQU, England).
The embryogenic cell line used in the selection for herbicide resistant cells (see Section 6.2.1) was different from the cell line used in the characterization of the site of action of 997 described in Section 6.1. Consequently, the effects of 997 on pool sizes of free amino acids in the cell line used in the selection procedure was also studied. The protocol described in Section 6.1.4 was followed for these studies.

[2] = 6×10^-8 M 214, seven days after plating
[3] = average ± standard deviation of three replicates

Structure (SMILES): CC(C)C1(C)NC(c2nc3ccccc3cc2C(=O)O)=NC1=O (stereo not drawn) [compound 214, 2-(5-isopropyl-5-methyl-4-oxo-2-imidazolin-2-yl)3-quinolinecarboxylic acid]
- somatic embryo development and shoot formation ([1]; 0.3 mg per liter 214): completely inhibited
- IC50 ([1]; Zea mays, 504 h, based on the number of shoots formed, first three weeks of regeneration protocol, read-out: concentration inhibiting plant regeneration 50%): 0.03 to 0.1 µg/mL (≈ 0.0964 to 0.321 µM)
- enhancement of tolerance at the cellular level (cell line XA119): approximately three fold
- root length of resistant seedlings (XA17 seedlings; [2]): 6-7 cm
- root length of sensitive seedlings (XA17 seedlings; [2]): 0-1 cm
- level of tolerance on an herbicide concentration basis (XA17 seedlings; seedlings heterozygous for the tolerance trait): at least 5 fold
- plantlet development on regeneration media (line XA17 tissue): Normally developing plantlets were obtained at all three herbicide levels

Structure (SMILES): CC(C)C1(C)NC(c2ncccc2C(=O)O)=NC1=O (stereo not drawn) [compound 997, 2-(5-isopropyl-5-methyl-4-oxo-2-imidazolin-2-yl)nicotinic acid]
- inhibition at 10 µM (Suspension culture cells): 50 to 77%
- ala B/A (treated/control) (Corn Suspension Cultures): 2.6
- arg B/A (treated/control) (Corn Suspension Cultures): 1.4
- asp B/A (treated/control) (Corn Suspension Cultures): 2.2
- glu B/A (treated/control) (Corn Suspension Cultures): 3.8
- gly B/A (treated/control) (Corn Suspension Cultures): 13.0
- ile B/A (treated/control) (Corn Suspension Cultures): 2.4
- leu B/A (treated/control) (Corn Suspension Cultures): 0.52
- lys B/A (treated/control) (Corn Suspension Cultures): 1.8
- met B/A (treated/control) (Corn Suspension Cultures): 3.8
- phe B/A (treated/control) (Corn Suspension Cultures): 6.6
- ser B/A (treated/control) (Corn Suspension Cultures): 8.7
- thr B/A (treated/control) (Corn Suspension Cultures): 6.4
- tyr B/A (treated/control) (Corn Suspension Cultures): 2.1
- val B/A (treated/control) (Corn Suspension Cultures): 0.27
- Free ala level (B) (Corn Suspension Cultures; [3]): 5750 ± 1100 n mol per g fresh wt tissue
- Free arg level (B) (Corn Suspension Cultures; [3]): 70 ± 60 n mol per g fresh wt tissue
- Free asp level (B) (Corn Suspension Cultures; [3]): 5700 ± 650 n mol per g fresh wt tissue
- Free glu level (B) (Corn Suspension Cultures; [3]): 8550 ± 210 n mol per g fresh wt tissue
- Free gly level (B) (Corn Suspension Cultures; [3]): 3130 ± 230 n mol per g fresh wt tissue
- Free ile level (B) (Corn Suspension Cultures; [3]): 220 ± 10 n mol per g fresh wt tissue
- Free leu level (B) (Corn Suspension Cultures; [3]): 120 ± 10 n mol per g fresh wt tissue
- Free lys level (B) (Corn Suspension Cultures; [3]): 230 ± 140 n mol per g fresh wt tissue
- Free met level (B) (Corn Suspension Cultures; [3]): 190 ± 80 n mol per g fresh wt tissue
- Free phe level (B) (Corn Suspension Cultures; [3]): 790 ± 90 n mol per g fresh wt tissue
- Free ser level (B) (Corn Suspension Cultures; [3]): 20000 ± 2000 n mol per g fresh wt tissue
- Free thr level (B) (Corn Suspension Cultures; [3]): 2960 ± 270 n mol per g fresh wt tissue
- Free tyr level (B) (Corn Suspension Cultures; [3]): 410 ± 80 n mol per g fresh wt tissue
- Free val level (B) (Corn Suspension Cultures; [3]): 140 ± 10 n mol per g fresh wt tissue
